From ChEMBL document CHEMBL1201862, “PubChem BioAssay data set” (2004)
Active and inactive are the calls of the source.

How the values were obtained:
[1] = molecular target: Eukaryotic translation initiation factor 4E (Mus musculus, UniProt P63073); test: eIF4E–eIF4G protein interaction inhibitors, dose response, biochemical, TR-FRET (AID 855); format: functional;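 also: potency for disrupting eIF4E binding to eIF4GI seen as loss of FRET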
[2] = molecular target: T1, Hexokinase-1 (Homo sapiens, UniProt P19367); test: SAR analysis of small molecule inhibitors of hexokinase domain containing I (HKDC1) in the hexokinase 1 selectivity assay. [Related pubchem assays (depositor defined):AID493160, AID493190]; format: functional
T1 sequence (P19367 whole entry): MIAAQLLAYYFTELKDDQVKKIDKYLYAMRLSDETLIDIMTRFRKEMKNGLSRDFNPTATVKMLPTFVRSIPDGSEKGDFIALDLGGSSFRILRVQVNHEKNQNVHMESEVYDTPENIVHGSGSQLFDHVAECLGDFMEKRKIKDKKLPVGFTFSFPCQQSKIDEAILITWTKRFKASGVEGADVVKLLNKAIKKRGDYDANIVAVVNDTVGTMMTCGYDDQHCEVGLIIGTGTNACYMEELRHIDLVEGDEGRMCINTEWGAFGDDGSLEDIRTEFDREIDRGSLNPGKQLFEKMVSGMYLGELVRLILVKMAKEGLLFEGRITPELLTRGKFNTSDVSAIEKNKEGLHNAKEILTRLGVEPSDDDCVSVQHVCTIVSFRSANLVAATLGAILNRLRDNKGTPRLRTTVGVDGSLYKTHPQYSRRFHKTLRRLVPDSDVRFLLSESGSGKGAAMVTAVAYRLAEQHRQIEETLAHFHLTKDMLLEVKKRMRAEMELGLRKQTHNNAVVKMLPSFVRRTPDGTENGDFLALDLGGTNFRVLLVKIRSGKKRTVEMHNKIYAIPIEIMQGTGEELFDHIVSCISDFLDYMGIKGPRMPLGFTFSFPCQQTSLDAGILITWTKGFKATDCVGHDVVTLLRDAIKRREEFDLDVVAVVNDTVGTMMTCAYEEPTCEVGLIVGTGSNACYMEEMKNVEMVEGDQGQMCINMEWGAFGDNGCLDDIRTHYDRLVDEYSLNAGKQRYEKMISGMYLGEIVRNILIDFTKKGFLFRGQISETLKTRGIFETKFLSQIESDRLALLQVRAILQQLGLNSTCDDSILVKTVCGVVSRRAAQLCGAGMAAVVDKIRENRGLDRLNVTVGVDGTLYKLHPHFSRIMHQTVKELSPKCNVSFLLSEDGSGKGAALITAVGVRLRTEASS

[3] = molecular target: T2, Hexokinase HKDC1 (Homo sapiens, UniProt Q2TB90); test: SAR analysis of small molecule inhibitors of hexokinase domain containing I (HKDC1). [Related pubchem assays (depositor defined):AID493160, AID493190]; format: functional
T2 sequence (Q2TB90 whole entry): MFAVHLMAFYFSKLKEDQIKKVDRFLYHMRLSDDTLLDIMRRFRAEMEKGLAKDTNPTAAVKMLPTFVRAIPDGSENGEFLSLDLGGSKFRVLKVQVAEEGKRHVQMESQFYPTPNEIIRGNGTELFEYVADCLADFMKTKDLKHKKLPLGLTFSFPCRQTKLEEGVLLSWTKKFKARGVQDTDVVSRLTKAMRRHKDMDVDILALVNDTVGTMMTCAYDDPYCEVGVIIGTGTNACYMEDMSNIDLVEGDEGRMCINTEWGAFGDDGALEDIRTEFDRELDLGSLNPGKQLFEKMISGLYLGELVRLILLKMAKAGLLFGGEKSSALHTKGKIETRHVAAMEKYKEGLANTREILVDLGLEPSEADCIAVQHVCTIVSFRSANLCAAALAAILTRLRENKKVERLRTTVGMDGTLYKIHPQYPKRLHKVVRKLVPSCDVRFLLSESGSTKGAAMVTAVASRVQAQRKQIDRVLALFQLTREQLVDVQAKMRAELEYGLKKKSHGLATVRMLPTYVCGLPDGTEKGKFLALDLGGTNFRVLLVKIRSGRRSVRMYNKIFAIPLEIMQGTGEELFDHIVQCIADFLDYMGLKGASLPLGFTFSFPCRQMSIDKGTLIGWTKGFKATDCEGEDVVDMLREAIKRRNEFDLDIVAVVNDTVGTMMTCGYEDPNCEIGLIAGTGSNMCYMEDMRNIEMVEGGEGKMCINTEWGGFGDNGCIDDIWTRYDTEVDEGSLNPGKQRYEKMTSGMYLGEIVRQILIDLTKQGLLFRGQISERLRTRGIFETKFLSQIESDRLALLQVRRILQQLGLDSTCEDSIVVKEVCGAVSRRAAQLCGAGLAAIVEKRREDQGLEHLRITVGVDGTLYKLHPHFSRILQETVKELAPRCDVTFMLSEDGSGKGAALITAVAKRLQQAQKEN

[4] = molecular target: Cytochrome P450 3A4 (Homo sapiens, UniProt P08684);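 also: CYP3A4 tested as one member of a cytochrome P450 panel screen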
Chain of Cytochrome P450 3A4 (P08684 whole entry): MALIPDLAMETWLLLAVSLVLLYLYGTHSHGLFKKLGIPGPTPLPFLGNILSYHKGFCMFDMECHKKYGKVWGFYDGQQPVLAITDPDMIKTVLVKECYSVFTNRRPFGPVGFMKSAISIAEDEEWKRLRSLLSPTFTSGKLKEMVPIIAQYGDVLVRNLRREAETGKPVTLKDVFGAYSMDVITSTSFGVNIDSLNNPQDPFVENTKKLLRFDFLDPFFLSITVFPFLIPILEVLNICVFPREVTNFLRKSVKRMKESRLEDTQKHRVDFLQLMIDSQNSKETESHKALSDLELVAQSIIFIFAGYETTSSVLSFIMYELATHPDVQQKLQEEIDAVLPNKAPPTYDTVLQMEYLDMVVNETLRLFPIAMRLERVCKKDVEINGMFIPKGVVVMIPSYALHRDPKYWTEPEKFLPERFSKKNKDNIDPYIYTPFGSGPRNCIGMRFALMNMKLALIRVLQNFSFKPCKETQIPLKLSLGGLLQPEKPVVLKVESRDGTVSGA

[5] = system: HEK293; test: NOD1 signaling inhibitors, primary screen, cell-based, luminescence, uHTS (AID 1578); format: functional; settings: Homo sapiens
[6] = system: Streptococcus sp. 'group A'; test: growth inhibition of control SK(-) GAS strain, dose response, counter-screen for streptokinase expression inhibitor project, luminescence, kanamycin, BacTiterGlo, confirmation (AID 1900); format: functional, organism-based
[7] = system: HEK293; test: cells; format: functional, cell-based; settings: Homo sapiens
[8] = molecular target: T3, Streptokinase A (Streptococcus pyogenes serotype M1, UniProt P10520); test: S. pyogenes streptokinase expression inhibitors, potency, dose response, plasminogen activation absorbance, OD405 (AID 1914); format: functional, Streptococcus pyogenes M1 GAS;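 also: secreted streptokinase activity via plasminogen activation per viability signal from cell pellet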
T3 sequence (P10520 whole entry): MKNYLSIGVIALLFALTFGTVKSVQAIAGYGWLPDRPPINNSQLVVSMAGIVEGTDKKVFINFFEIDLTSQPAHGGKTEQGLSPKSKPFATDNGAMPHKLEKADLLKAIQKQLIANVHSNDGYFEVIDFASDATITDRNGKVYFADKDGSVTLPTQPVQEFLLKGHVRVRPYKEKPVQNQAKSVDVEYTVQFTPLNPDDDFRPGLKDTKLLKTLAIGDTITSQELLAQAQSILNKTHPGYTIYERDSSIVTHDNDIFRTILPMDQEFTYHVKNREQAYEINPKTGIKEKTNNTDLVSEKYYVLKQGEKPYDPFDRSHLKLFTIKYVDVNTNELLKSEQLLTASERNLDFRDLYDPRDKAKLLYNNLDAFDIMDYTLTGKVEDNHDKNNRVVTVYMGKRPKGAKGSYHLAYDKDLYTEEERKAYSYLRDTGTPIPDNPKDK

[9] = system: HEK293; test: cells; format: functional, cell-based; settings: Homo sapiens; remark: listed apart in the source
[10] = system: HEK293; test: NOD2 signaling inhibitors in MDP-stimulated cells, cell-based, uHTS, luminescence (AID 2001); format: functional; settings: Homo sapiens
[11] = system: Streptococcus; test: Group A Streptococcus viability loss, dose response, counter-screen for streptokinase expression inhibitor project, luminescence, BacTiterGlo (AID 1915); format: functional, organism-based;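 also: potency for reduction of bacterial viability or growth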
[12] = molecular target: Tumor necrosis factor (Homo sapiens, UniProt P01375); test: TNFa-triggered NF-kB activation inhibitors, SAR follow-up, cell-based, revised (AID 2337); format: functional
Chain of Tumor necrosis factor (P01375 whole entry, the tested form may be a part): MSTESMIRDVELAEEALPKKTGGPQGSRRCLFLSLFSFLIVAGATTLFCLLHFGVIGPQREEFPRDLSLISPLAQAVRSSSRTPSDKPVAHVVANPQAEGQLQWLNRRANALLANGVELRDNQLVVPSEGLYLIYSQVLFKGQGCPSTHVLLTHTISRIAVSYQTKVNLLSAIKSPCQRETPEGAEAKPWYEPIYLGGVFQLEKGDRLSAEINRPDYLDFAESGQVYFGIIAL

[13] = molecular target: T4, Nucleotide-binding oligomerization domain-containing protein 1 (Homo sapiens, UniProt Q9Y239); test: NOD1 signaling inhibitors, SAR follow-up, revised (AID 2333); format: functional
T4 sequence (Q9Y239 whole entry): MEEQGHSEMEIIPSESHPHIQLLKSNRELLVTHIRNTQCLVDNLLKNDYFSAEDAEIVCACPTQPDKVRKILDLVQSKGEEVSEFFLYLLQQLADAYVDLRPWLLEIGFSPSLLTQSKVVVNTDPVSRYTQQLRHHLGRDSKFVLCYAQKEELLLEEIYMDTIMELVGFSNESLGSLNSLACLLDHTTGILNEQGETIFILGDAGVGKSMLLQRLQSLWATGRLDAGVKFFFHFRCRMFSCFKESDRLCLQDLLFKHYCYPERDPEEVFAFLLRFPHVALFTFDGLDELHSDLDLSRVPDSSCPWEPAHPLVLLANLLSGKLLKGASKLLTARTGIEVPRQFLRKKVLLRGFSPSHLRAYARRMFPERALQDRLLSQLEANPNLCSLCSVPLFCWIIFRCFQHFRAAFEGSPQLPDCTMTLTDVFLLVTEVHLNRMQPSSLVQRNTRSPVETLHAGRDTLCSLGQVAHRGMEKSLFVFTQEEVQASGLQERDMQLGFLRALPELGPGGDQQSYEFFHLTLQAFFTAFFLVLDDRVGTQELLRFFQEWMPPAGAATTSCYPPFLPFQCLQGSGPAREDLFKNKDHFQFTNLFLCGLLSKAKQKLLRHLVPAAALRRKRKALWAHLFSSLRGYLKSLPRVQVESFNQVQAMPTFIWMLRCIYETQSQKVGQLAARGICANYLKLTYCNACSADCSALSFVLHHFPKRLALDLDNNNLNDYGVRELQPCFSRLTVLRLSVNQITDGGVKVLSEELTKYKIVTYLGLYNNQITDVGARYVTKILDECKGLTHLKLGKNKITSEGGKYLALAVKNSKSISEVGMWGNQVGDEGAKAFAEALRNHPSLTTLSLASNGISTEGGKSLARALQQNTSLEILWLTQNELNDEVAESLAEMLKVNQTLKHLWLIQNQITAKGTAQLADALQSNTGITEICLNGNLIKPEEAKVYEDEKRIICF

[14] = system: HEK293; test: cells; settings: Homo sapiens

Chain of Eukaryotic translation initiation factor 4E (P63073 whole entry, the tested form may be a part): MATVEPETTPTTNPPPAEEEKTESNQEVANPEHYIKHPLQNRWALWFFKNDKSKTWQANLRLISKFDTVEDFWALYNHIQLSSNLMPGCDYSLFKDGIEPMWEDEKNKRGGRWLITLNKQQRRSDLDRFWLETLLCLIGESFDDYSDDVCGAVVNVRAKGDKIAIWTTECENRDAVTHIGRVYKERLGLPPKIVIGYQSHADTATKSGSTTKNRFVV

In the case of `O=C(Nc1nnc(SCc2ccc(F)cc2)s1)c1ccc2ncsc2c1`, the IC50 [1] is reported as 26.2 µM (active), the IC50 [2] is reported as > 80 µM (inactive) and the IC50 [3] is reported as 12 µM (active).
For `CCOC(=O)N1CCN(c2nc(-c3cccs3)cc(C(F)(F)F)n2)CC1`, the AC50 [4] was “inconclusive”.
For `Cc1ccccc1/C=C1\Sc2ccc(C(=O)N3CCN(c4ccccn4)CC3)cc2N(C)C1=O`, the EC50 [5] was 8.18 µM (active), the EC50 [6] was 4.49 µM (active) and the IC50 [7] was 5.97 µM (active). For the same molecule, the EC50 [8] was > 150 µM (not active), the IC50 [9] was 7.21 µM (active) and the IC50 [10] was 6.78 µM (active). For the same molecule, the EC50 [11] was 16.6 µM (active), the IC50 [12] was 6.22 µM (active) and the IC50 [13] was 4.28 µM (active). The IC50 [14] was 10.8 µM (active).
`NC(=O)CN1CCOCCOCCOCCOCCOCC1` was tested, and the AC50 [4] was “inconclusive”.
For `COCC(=O)N1CCC2(CC1)CCN(c1ccc(-c3ccccc3)cc1)CC2`, the AC50 [4] was “inconclusive”.
In the case of `O=C(O)CSc1cc(NS(=O)(=O)c2ccccc2)c2ccccc2c1O`, the IC50 [2] is reported as > 80 µM (inactive) and the IC50 [3] is reported as 4.84 µM (active).
In the case of `Cc1nc(C)c(C(=O)Nc2cccc(C(=O)Nc3cccc(C(F)(F)F)c3)c2)s1`, the IC50 [2] is reported as > 80 µM (inactive) and the IC50 [3] is reported as > 80 µM (inactive).
